Literature values as cited in patent publication US20140199405A1, “METHOD FOR TREATING CANCER BASED ON MUTATION STATUS OF K-RAS” (priority 2013, published 2014).

What was measured:
[1] = test system: locally advanced pancreatic cancer; conditions: patients with locally advanced pancreatic cancer
pancreatic cancer = conditions: combination versus gemcitabine monotherapy

| Structure (SMILES) | median overall survival [1] | median time to disease progression [1] | median overall survival (pancreatic cancer) | median progression free survival (pancreatic cancer) |
| --- | --- | --- | --- | --- |
| Nc1ccn([C@@H]2O[C@H](CO)[C@@H](O)C2(F)F)c(=O)n1 [gemcitabine] | 5.7 months | 2.1 months | 6.0 months | 3.5 months |
| O=c1[nH]cc(F)c(=O)[nH]1 [5-FU, 5-fluororuracil] | 4.2 months | 0.9 months | – | – |
